Results as given in ChEMBL document CHEMBL1817568, “Novel hybrids of fluconazole and furanones: design, synthesis and antifungal activity” (2011).
≈ marks a conversion by molar mass, not a printed value. Calls of active or inactive are those of the source. No cut-off for these calls is given here.

Assays:
Candida tropicalis [1] = experiment: Antifungal activity against Candida tropicalis ATCC 750 by broth dilution method; assay type: functional
Aspergillus fumigatus [2] = experiment: Antifungal activity against Aspergillus fumigatus ATCC 46645 at 128 ug/ml by broth dilution method; assay type: functional, organism-based
Cryptococcus neoformans [3] = experiment: Antifungal activity against Cryptococcus neoformans ATCC 34664 by broth dilution method; assay type: functional
Fusarium proliferatum [4] = experiment: Antifungal activity against Fusarium proliferatum ATCC 10052 at 128 ug/ml by broth dilution method; assay type: functional, organism-based
Aspergillus niger [5] = experiment: Antifungal activity against Aspergillus niger ATCC 16404 at 128 ug/ml by broth dilution method; assay type: functional, organism-based
Candida albicans [6] = experiment: Antifungal activity against Candida albicans ATCC 24433 by broth dilution method; assay type: functional
Pichia kudriavzevii [7] = experiment: Antifungal activity against Candida krusei ATCC 6258 by broth dilution method; assay type: functional
Nakaseomyces glabratus [8] = experiment: Antifungal activity against Candida glabrata ATCC 90030 by broth dilution method; assay type: functional
Pichia kudriavzevii [9] = experiment: Antifungal activity against Candida krusei ATCC 6258 at 128 ug/ml by broth dilution method; assay type: functional, organism-based
Candida tropicalis [10] = experiment: Antifungal activity against Candida tropicalis ATCC 750 at 128 ug/ml by broth dilution method; assay type: functional, organism-based
Fusarium proliferatum [11] = experiment: Antifungal activity against Fusarium proliferatum ATCC 10052 at 4 ug/ml by broth dilution method; assay type: functional, organism-based
Aspergillus niger [12] = experiment: Antifungal activity against Aspergillus niger ATCC 16404 at 4 ug/ml by broth dilution method; assay type: functional, organism-based
Aspergillus fumigatus [13] = experiment: Antifungal activity against Aspergillus fumigatus ATCC 46645 at 4 ug/ml by broth dilution method; assay type: functional, organism-based
Pichia kudriavzevii [14] = experiment: Antifungal activity against Candida krusei ATCC 6258 at 4 ug/ml by broth dilution method; assay type: functional, organism-based
Candida tropicalis [15] = experiment: Antifungal activity against Candida tropicalis ATCC 750 at 4 ug/ml by broth dilution method; assay type: functional, organism-based
Cryptococcus neoformans [16] = experiment: Antifungal activity against Cryptococcus neoformans ATCC 34664 at 4 ug/ml by broth dilution method; assay type: functional, organism-based
Aspergillus niger [17] = experiment: Antifungal activity against Aspergillus niger ATCC 16404 at 8 ug/ml by broth dilution method; assay type: functional, organism-based
Aspergillus fumigatus [18] = experiment: Antifungal activity against Aspergillus fumigatus ATCC 46645 at 8 ug/ml by broth dilution method; assay type: functional, organism-based
Pichia kudriavzevii [19] = experiment: Antifungal activity against Candida krusei ATCC 6258 at 8 ug/ml by broth dilution method; assay type: functional, organism-based
Pichia kudriavzevii [20] = experiment: Antifungal activity against Candida krusei ATCC 6258 at 16 ug/ml by broth dilution method; assay type: functional, organism-based
Aspergillus niger [21] = experiment: Antifungal activity against Aspergillus niger ATCC 16404 at 16 ug/ml by broth dilution method; assay type: functional, organism-based
Cryptococcus neoformans [22] = experiment: Antifungal activity against Cryptococcus neoformans ATCC 34664 at 16 ug/ml by broth dilution method; assay type: functional, organism-based
Fusarium proliferatum [23] = experiment: Antifungal activity against Fusarium proliferatum ATCC 10052 at 16 ug/ml by broth dilution method; assay type: functional, organism-based
Aspergillus fumigatus [24] = experiment: Antifungal activity against Aspergillus fumigatus ATCC 46645 at 16 ug/ml by broth dilution method; assay type: functional, organism-based
Candida albicans [25] = experiment: Antifungal activity against Candida albicans ATCC 24433 at 4 ug/ml by broth dilution method; assay type: functional, organism-based
Nakaseomyces glabratus [26] = experiment: Antifungal activity against Candida glabrata ATCC 90030 at 4 ug/ml by broth dilution method; assay type: functional, organism-based
Candida albicans [27] = experiment: Antifungal activity against Candida albicans ATCC 24433 at 8 ug/ml by broth dilution method; assay type: functional, organism-based
Cryptococcus neoformans [28] = experiment: Antifungal activity against Cryptococcus neoformans ATCC 34664 at 8 ug/ml by broth dilution method; assay type: functional, organism-based
Fusarium proliferatum [29] = experiment: Antifungal activity against Fusarium proliferatum ATCC 10052 at 8 ug/ml by broth dilution method; assay type: functional, organism-based
Nakaseomyces glabratus [30] = experiment: Antifungal activity against Candida glabrata ATCC 90030 at 8 ug/ml by broth dilution method; assay type: functional, organism-based

SMILES	MIC50 (Candida tropicalis [1])	Activity (Aspergillus fumigatus [2])	MIC50 (Cryptococcus neoformans [3])	Activity (Fusarium proliferatum [4])	Activity (Aspergillus niger [5])	MIC50 (Candida albicans [6])	MIC50 (Nakaseomyces glabratus [8])	Activity (Fusarium proliferatum [11])	Activity (Aspergillus niger [12])	Activity (Aspergillus fumigatus [13])	Activity (Pichia kudriavzevii [14])	Activity (Candida tropicalis [15])	Activity (Cryptococcus neoformans [16])	Activity (Candida albicans [25])	Activity (Nakaseomyces glabratus [26])	also measured
COc1cc(C=O)ccc1OCC(O)(Cn1cncn1)c1ccc(F)cc1F (racemic)	8 µg/mL (≈ 20.5 µM)	inactive	16 µg/mL (≈ 41.1 µM)	inactive	inactive	0.5 µg/mL (≈ 1.28 µM)	1 µg/mL (≈ 2.57 µM)	–	–	–	–	–	–	–	–	MIC50 (Pichia kudriavzevii [7]): 128 µg/mL (≈ 329 µM)
COc1cc(C=O)cc(OC)c1OCC(O)(Cn1cncn1)c1ccc(F)cc1F (racemic)	64 µg/mL (≈ 153 µM)	inactive	8 µg/mL (≈ 19.1 µM)	inactive	inactive	1 µg/mL (≈ 2.38 µM)	1 µg/mL (≈ 2.38 µM)	–	–	–	–	–	–	–	–	Activity (Pichia kudriavzevii [9]): inactive
COc1ccc(C=O)cc1OCC(O)(Cn1cncn1)c1ccc(F)cc1F (racemic)	–	inactive	16 µg/mL (≈ 41.1 µM)	inactive	inactive	2 µg/mL (≈ 5.14 µM)	2 µg/mL (≈ 5.14 µM)	–	–	–	–	–	–	–	–	Activity (Candida tropicalis [10]): inactive; Activity (Pichia kudriavzevii [9]): inactive
O=C1OC(c2ccccc2)=N/C1=C\c1ccc(OCC(O)(Cn2cncn2)c2ccc(F)cc2F)cc1 (racemic)	–	–	–	–	–	4 µg/mL (≈ 7.96 µM)	4 µg/mL (≈ 7.96 µM)	inactive	inactive	inactive	inactive	inactive	inactive	–	–	–
O=C(O)Cc1ccc(OCC(O)(Cn2cncn2)c2ccc(F)cc2F)cc1 (racemic)	64 µg/mL (≈ 164 µM)	inactive	64 µg/mL (≈ 164 µM)	inactive	inactive	8 µg/mL (≈ 20.5 µM)	8 µg/mL (≈ 20.5 µM)	–	–	–	–	–	–	–	–	Activity (Pichia kudriavzevii [9]): inactive
CC1OC(=O)C(c2ccc(OCC(O)(Cn3cncn3)c3ccc(F)cc3F)cc2)=C1c1ccc(F)cc1F (racemic)	8 µg/mL (≈ 14.8 µM)	–	4 µg/mL (≈ 7.41 µM)	–	–	1 µg/mL (≈ 1.85 µM)	1 µg/mL (≈ 1.85 µM)	–	–	–	–	–	–	–	–	Activity (Aspergillus niger [17]): inactive; Activity (Aspergillus fumigatus [18]): inactive; Activity (Pichia kudriavzevii [19]): inactive
CC1(O)OC(=O)C(c2ccc(OCC(O)(Cn3cncn3)c3ccc(F)cc3F)cc2)=C1c1ccc(F)cc1F (racemic)	8 µg/mL (≈ 14.4 µM)	–	–	–	–	2 µg/mL (≈ 3.6 µM)	2 µg/mL (≈ 3.6 µM)	–	–	–	–	–	–	–	–	Activity (Pichia kudriavzevii [20]): inactive; Activity (Aspergillus niger [21]): inactive; Activity (Cryptococcus neoformans [22]): inactive; Activity (Fusarium proliferatum [23]): inactive; Activity (Aspergillus fumigatus [24]): inactive
COc1cc(/C=C2\N=C(c3ccccc3)OC2=O)ccc1OCC(O)(Cn1cncn1)c1ccc(F)cc1F (racemic)	–	–	–	–	–	–	–	inactive	inactive	inactive	inactive	inactive	inactive	inactive	inactive	–
COc1ccc(/C=C2\N=C(c3ccccc3)OC2=O)cc1OCC(O)(Cn1cncn1)c1ccc(F)cc1F (racemic)	–	–	–	–	–	–	–	inactive	inactive	inactive	inactive	inactive	inactive	inactive	inactive	–
COc1ccc(/C=C2\SC(=S)NC2=O)cc1OCC(O)(Cn1cncn1)c1ccc(F)cc1F (racemic)	–	–	–	–	–	–	–	–	–	–	–	–	–	–	–	Activity (Candida albicans [27]): inactive; Activity (Cryptococcus neoformans [28]): inactive; Activity (Aspergillus niger [17]): inactive; Activity (Fusarium proliferatum [29]): inactive; Activity (Aspergillus fumigatus [18]): inactive; Activity (Pichia kudriavzevii [19]): inactive; Activity (Nakaseomyces glabratus [30]): inactive
O=C1O/C(=C\c2ccc(OCC(O)(Cn3cncn3)c3ccc(F)cc3F)cc2)C(c2ccc(F)cc2F)=C1c1ccc(Cl)c(Cl)c1 (racemic)	–	–	–	–	–	–	–	inactive	inactive	inactive	inactive	inactive	inactive	inactive	inactive	–
O=C1O/C(=C\c2ccc(OCC(O)(Cn3cncn3)c3ccc(F)cc3F)cc2)C(c2ccc(F)cc2F)=C1c1ccc(Cl)cc1 (racemic)	–	–	–	–	–	–	–	inactive	inactive	inactive	inactive	inactive	inactive	inactive	inactive	–
OC(Cn1cncn1)(Cn1cncn1)c1ccc(F)cc1F [FLUCONAZOLE]	1 µg/mL (≈ 3.27 µM)	inactive	2 µg/mL (≈ 6.53 µM)	inactive	inactive	0.25 µg/mL (≈ 0.816 µM)	1 µg/mL (≈ 3.27 µM)	–	–	–	–	–	–	–	–	MIC50 (Pichia kudriavzevii [7]): 32 µg/mL (≈ 104 µM)
